{"source": "patent US7307087B2", "about": "“Treatment of affective disorders by the combined action of a nicotinic receptor agonist and a monoaminergic substance” (Neurosearch A/S, priority 2000, dated 2007)", "key": {"NMRI mice [1]": {"system": "NMRI mice", "details": "systemic administration; mice in a small water pool; background statement; cited from earlier work"}, "NMRI mice [2]": {"system": "NMRI mice", "test": "Mouse Forced Swim Test (mFST)", "type": "in vivo", "details": "compound alone, 0.3, 1, 3, 10 mg/kg s.c., 30 minutes pre-treatment", "protocol": "The Forced Swim Test therefore is considered predictive of a potential antidepressant pharmacological effect.\nFemale NMRI mice (of 20-25 g) are habituated to the laboratory (a 12 hour light/dark cycle) for at least 16 hours before the experiment.\n30 minutes after s.c. injection of either vehicle or drug, the mouse is placed in a glass beaker (d=16 cm; 5000 ml) with water (24° C.) up till 10 cm from the top edge. For the subsequent 6 minutes the duration of immobility defined as swim speed less than 2.5 cm/minute, and forced swim distance defined as distance swum with a speed above 5 cm/minute, is recorded. There are 8 mice in each group.\nThe activity of the mouse is tracked by the View Point system for the measurement of distance, immobility, and speed.\nTime of immobility ±SEM (seconds) and forced swim distance ±SEM (cm) in 15 seconds time intervals are presented and plotted in SigmaPlot. Mean total immobility time and total swim distance in the time interval 60-360 seconds are calculated and presented for each group. The dose showing significant difference from the vehicle treated group is reported as the Minimal Effective Dose (MED s.c. mg/kg)."}}, "data": [{"smiles": "Ic1ccc(N2CCNCC2)nn1.O=C(O)/C=C/C(=O)O", "values": [{"measurement": "melting point", "value": "187 to 190", "unit": "°C"}]}, {"smiles": "Clc1cncc(N2CCNCC2)c1.O=C(O)/C=C/C(=O)O", "values": [{"measurement": "melting point", "value": "195 to 196", "unit": "°C"}]}, {"smiles": "O=C(O)/C=C/C(=O)O.c1ccc2c(c1)ncn2-c1ccc(N2CCNCC2)nn1", "values": [{"measurement": "melting point", "value": 217, "unit": "°C"}]}, {"smiles": "CNCCCN1c2ccccc2CCc2ccccc21", "note": "[Desipramine]", "values": [{"measurement": "forced swim distance", "setting": "NMRI mice [1]", "value": "induces an increase in the forced swim distance"}]}, {"smiles": "CN1C2CCC1CN(c1ccccc1)CC2.O=C(O)/C=C/C(=O)O", "note": "(racemic)", "values": [{"measurement": "melting point", "value": 143.9, "unit": "°C"}]}, {"smiles": "Cl.Cl.Clc1ccc(N2CCNCC2)cn1", "note": "[Compound 1C3, 1-(6-Chloro-3-pyridyl)-piperazine Dihydrochloric Acid Salt]", "values": [{"measurement": "forced swimming", "setting": "NMRI mice [2]", "value": "did not affect forced swimming"}]}]}
